In patent US9409966B2, “Glucagon-like peptide-1 derivatives and their pharmaceutical use” (priority 2007, dated 2016):
pEC50: −log10 of the molar value. *1 amine or outer side, *2 acyl side, *3 side chain or, on linkers, in order; H or OH if unused. Where a SMILES comes first, the peptide text is derived from it. Side-chain parts run from the residue outwards. [ ]: non-standard residue; d: D form. The star is where a group is joined. C20 diacid = O=C(O)CCCCCCCCCCCCCCCCCCC(=O)*; C18 diacid = O=C(O)CCCCCCCCCCCCCCCCC(=O)*; C16 diacid = O=C(O)CCCCCCCCCCCCCCC(=O)*; γGlu = O=C(O)[C@H](CCC(=O)[*:2])N[*:1]; Desaminohistidyl = O=C(CCc1c[nH]cn1)*; Trx = NC[C@H]1CC[C@H](C(=O)O)CC1; NTA = O=C(O)CN(CC(=O)O)CC(=O)*; Dap = NC[C@H](N)C(=O)O; AEEA = NCCOCCOCC(=O)O; Aib = CC(C)(N)C(=O)O

Tests used:
human GLP-1 receptor = molecular target: T1, human GLP-1 receptor (Homo sapiens, UniProt P43220); assay: Stimulation of cAMP formation in a cell line expressing the cloned human GLP-1 receptor; assay type: biochemical; conditions: cAMP production, purified plasma membranes from BHK467-12A (tk-ts13), AlphaScreen cAMP Assay Kit; read-out: Potency [EC50/nM]
T1 construct: expressed in transfected cells; host or cells: BHK467-12A (tk-ts13) baby hamster kidney cells; purified plasma membranes
T1 sequence (P43220 24-463): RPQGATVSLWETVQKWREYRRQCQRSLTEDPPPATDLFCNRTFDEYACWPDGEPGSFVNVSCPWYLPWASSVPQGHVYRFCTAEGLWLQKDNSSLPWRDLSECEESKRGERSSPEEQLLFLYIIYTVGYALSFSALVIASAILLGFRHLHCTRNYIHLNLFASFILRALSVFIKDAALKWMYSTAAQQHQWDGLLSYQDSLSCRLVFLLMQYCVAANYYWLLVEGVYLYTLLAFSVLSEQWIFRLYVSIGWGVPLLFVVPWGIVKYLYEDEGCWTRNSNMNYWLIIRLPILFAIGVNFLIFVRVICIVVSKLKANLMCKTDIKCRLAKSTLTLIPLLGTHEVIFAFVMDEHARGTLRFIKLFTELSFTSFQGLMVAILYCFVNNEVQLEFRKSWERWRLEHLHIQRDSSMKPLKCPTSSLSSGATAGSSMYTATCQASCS
Method: A stable transfected cell line has been prepared at NN A/S, Denmark, and a high expressing clone was selected for screening. The cells were grown at 5% CO2 in DMEM, 5% FCS, 1% Pen/Strep (Penicillin/Streptomycin) and 0.5 mg/ml of the selection marker G418.
Cells at approximate 80% confluence were washed 2× with PBS (Phosphate Buffered Saline) and harvested with Versene (aqueous solution of the tetrasodium salt of ethylenediaminetetraacetic acid), centrifuged 5 min at 1000 rpm and the supernatant removed. The additional steps were all made on ice. […] Suspension in Buffer 2, homogenization and centrifugation was repeated once and the membranes were resuspended in Buffer 2 and ready for further analysis or stored at −80° C.
The functional receptor assay was carried out by measuring the peptide induced cAMP production by The AlphaScreen Technology. […] The capture of cAMP is achieved by using a specific antibody conjugated to acceptor beads. Formed cAMP was counted and measured at a AlphaFusion Microplate Analyzer. The EC50 values were calculated using the Graph-Pad Prisme software (version 5).

[1] = molecular target: human serum albumin (HSA) (Homo sapiens, UniProt P02768); assay: Albumin binding affinity, competition scintillation proximity assay (SPA)
Sequence of human serum albumin (HSA) (P02768 25-609): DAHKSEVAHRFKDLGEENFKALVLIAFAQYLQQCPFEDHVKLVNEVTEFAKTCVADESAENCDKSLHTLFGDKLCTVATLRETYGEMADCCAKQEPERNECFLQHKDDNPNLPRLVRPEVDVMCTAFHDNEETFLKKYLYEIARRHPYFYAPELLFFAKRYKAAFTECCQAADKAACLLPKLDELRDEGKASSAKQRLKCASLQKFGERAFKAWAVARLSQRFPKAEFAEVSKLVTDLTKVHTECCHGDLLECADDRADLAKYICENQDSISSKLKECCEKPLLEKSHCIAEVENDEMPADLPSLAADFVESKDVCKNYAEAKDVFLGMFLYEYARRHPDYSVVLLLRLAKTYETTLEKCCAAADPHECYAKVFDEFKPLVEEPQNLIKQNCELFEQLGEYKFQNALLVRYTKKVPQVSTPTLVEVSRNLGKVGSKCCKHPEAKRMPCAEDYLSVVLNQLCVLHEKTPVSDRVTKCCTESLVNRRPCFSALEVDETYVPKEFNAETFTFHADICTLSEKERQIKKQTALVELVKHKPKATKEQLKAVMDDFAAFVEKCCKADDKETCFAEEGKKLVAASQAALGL
Method: Streptavidin-SPA beads (GE Healthcare RPNQ0009) were incubated with biotinylated HSA for 5 hours. The beads were washed with buffer to remove unbound HSA. […] After 20 hours of gentle rocking at room temperature the plates were centrifuged and counted on a TopCounter.

EC50 (human GLP-1 receptor) [nM] | pEC50 [1] | SMILES
0.66 | – | CC[C@H](C)[C@H](NC(=O)[C@H](Cc1ccccc1)NC(=O)[C@H](CCC(=O)O)NC(=O)[C@H](CCCNC(=N)N)NC(=O)[C@H](C)NC(=O)[C@H](C)NC(=O)[C@H](CCC(N)=O)NC(=O)[C@H](CCC(=O)O)NC(=O)[C@H](CCC(=O)O)NC(=O)[C@H](CC(C)C)NC(=O)[C@H](Cc1ccc(O)cc1)NC(=O)[C@H](CO)NC(=O)[C@H](CO)NC(=O)[C@@H](NC(=O)[C@H](CC(=O)O)NC(=O)[C@H](CO)NC(=O)[C@@H](NC(=O)[C@H](Cc1ccccc1)NC(=O)[C@@H](NC(=O)CNC(=O)[C@H](CCC(=O)O)NC(=O)[C@H](C)NC(=O)CCc1c[nH]cn1)[C@@H](C)O)[C@@H](C)O)C(C)C)C(=O)N[C@@H](CCC(=O)O)C(=O)N[C@@H](Cc1c[nH]c2ccccc12)C(=O)N[C@@H](CC(C)C)C(=O)N[C@H](C(=O)N[C@@H](CCCNC(=N)N)C(=O)NCC(=O)N[C@@H](CCCNC(=N)N)C(=O)N[C@@H](CCCCNC(=O)COCCOCCNC(=O)COCCOCCNC(=O)CC[C@H](NC(=O)[C@H]1CC[C@H](CNC(=O)CCCCCCCCCCCCCCCCCCC(=O)O)CC1)C(=O)O)C(=O)O)C(C)C [Example 10, N-epsilon37-[2-(2-{2-[2-(2-{2-[(S)-4-Carboxy-4-({trans-4-[(19-carboxy-nonadecanoylamino)methyl]cyclohexanecarbonyl}amino)butyrylamino]ethoxy}ethoxy)acetylamino]ethoxy}ethoxy)acetyl][DesaminoHis7,Glu22,Arg26,Glu30,Arg34,Lys37]GLP-1-(7-37)] (Desaminohistidyl-AEGTFTSDVSSYLEEQAAREFIEWLVRGRK([AEEA-AEEA-γGlu-Trx-C20 diacid])-OH)
0.15 | – | CCCCCCCCCCCCCCCCOCCOCCOCCOCCOCCOCCC(=O)NCCCC[C@H](NC(=O)[C@H](CCCNC(=N)N)NC(=O)CNC(=O)[C@H](CCCNC(=N)N)NC(=O)[C@@H](NC(=O)[C@H](CC(C)C)NC(=O)[C@H](Cc1c[nH]c2ccccc12)NC(=O)[C@H](C)NC(=O)[C@@H](NC(=O)[C@H](Cc1ccccc1)NC(=O)[C@H](CCC(=O)O)NC(=O)[C@H](CCCNC(=N)N)NC(=O)[C@H](C)NC(=O)[C@H](C)NC(=O)[C@H](CCC(N)=O)NC(=O)[C@H](CCC(=O)O)NC(=O)[C@H](CCC(=O)O)NC(=O)[C@H](CC(C)C)NC(=O)[C@H](Cc1ccc(O)cc1)NC(=O)[C@H](CO)NC(=O)[C@H](CO)NC(=O)[C@@H](NC(=O)[C@H](CC(=O)O)NC(=O)[C@H](CO)NC(=O)[C@@H](NC(=O)[C@H](Cc1ccccc1)NC(=O)[C@@H](NC(=O)CNC(=O)[C@H](CCC(=O)O)NC(=O)[C@H](C)NC(=O)CCc1c[nH]cn1)[C@@H](C)O)[C@@H](C)O)C(C)C)[C@@H](C)CC)C(C)C)C(N)=O [Example 16, N-epsilon37 (3-((2-(2-(2-(2-(2-Hexadecyloxyethoxy)ethoxy)ethoxy)ethoxy)ethoxy))propionyl)[DesaminoHis7,Glu22,Arg26,Arg34,Lys37]GLP-1(7-37)-amide]
– | < 5.70 | CC[C@H](C)[C@H](NC(=O)[C@H](Cc1ccccc1)NC(=O)[C@H](CCC(=O)O)NC(=O)[C@H](CCCNC(=N)N)NC(=O)[C@H](C)NC(=O)[C@H](C)NC(=O)[C@H](CCC(N)=O)NC(=O)[C@H](CCC(=O)O)NC(=O)[C@H](CCC(=O)O)NC(=O)[C@H](CC(C)C)NC(=O)[C@H](Cc1ccc(O)cc1)NC(=O)[C@H](CO)NC(=O)[C@H](CO)NC(=O)[C@@H](NC(=O)[C@H](CC(=O)O)NC(=O)[C@H](CO)NC(=O)[C@@H](NC(=O)[C@H](Cc1ccccc1)NC(=O)[C@@H](NC(=O)CNC(=O)[C@H](CCC(=O)O)NC(=O)[C@H](C)NC(=O)CCc1c[nH]cn1)[C@@H](C)O)[C@@H](C)O)C(C)C)C(=O)N[C@@H](CCC(=O)O)C(=O)N[C@@H](Cc1c[nH]c2ccccc12)C(=O)N[C@@H](CC(C)C)C(=O)N[C@H](C(=O)N[C@@H](CCCNC(=N)N)C(=O)NCC(=O)N[C@@H](CCCCNC(=O)COCCOCCNC(=O)COCCOCCNC(=O)CC[C@H](NC(=O)CCCCCCCCCCCCCCC(=O)O)C(=O)O)C(=O)NCC(=O)N[C@@H](CCC(=O)O)C(=O)N[C@@H](CCCCN)C(=O)O)C(C)C [Example 30, N-epsilon36-[2-(2-{2-[2-(2-{2-[(S)-4-carboxy-4-(15-carboxy-pentadecanoylamino)-butyrylamino]-ethoxy}-ethoxy)-acetylamino]-ethoxy}-ethoxy)-acetyl] [desaminoHis7, Glu22, Arg26, Glu30, Arg34, Lys36]GLP-1-(7-37)-Glu-Lys peptide] (Desaminohistidyl-AEGTFTSDVSSYLEEQAAREFIEWLVRGK([AEEA-AEEA-γGlu-C16 diacid])GEK-OH)
– | 6.82 to 7.00 | CC[C@H](C)[C@H](NC(=O)[C@H](Cc1ccccc1)NC(=O)[C@H](CCC(=O)O)NC(=O)[C@H](CCCNC(=N)N)NC(=O)[C@H](C)NC(=O)[C@H](C)NC(=O)[C@H](CCC(N)=O)NC(=O)[C@H](CCC(=O)O)NC(=O)[C@H](CCC(=O)O)NC(=O)[C@H](CC(C)C)NC(=O)[C@H](Cc1ccc(O)cc1)NC(=O)[C@H](CO)NC(=O)[C@H](CO)NC(=O)[C@@H](NC(=O)[C@H](CC(=O)O)NC(=O)[C@H](CO)NC(=O)[C@@H](NC(=O)[C@H](Cc1ccccc1)NC(=O)[C@@H](NC(=O)CNC(=O)[C@H](CCC(=O)O)NC(=O)C(C)(C)NC(=O)[C@@H](N)Cc1c[nH]cn1)[C@@H](C)O)[C@@H](C)O)C(C)C)C(=O)N[C@@H](C)C(=O)N[C@@H](Cc1c[nH]c2ccccc12)C(=O)N[C@@H](CC(C)C)C(=O)N[C@H](C(=O)N[C@@H](CCCNC(=N)N)C(=O)NC(C)(C)C(=O)N[C@@H](CCCNC(=N)N)C(=O)N[C@@H](CCCCNC(=O)COCCOCCNC(=O)COCCOCCNC(=O)CC[C@H](NC(=O)CCCCCCCCCCCCCCCCC(=O)O)C(=O)O)C(=O)O)C(C)C [Example 33, N-epsilon37-[2-(2-{2-[2-(2-{2-[(S)-4-carboxy-4-(17-carboxy-heptadecanoylamino)-butyrylamino]-ethoxy}-ethoxy)-acetylamino]-ethoxy}-ethoxy)-acetyl]-[Aib8,Glu22, Arg26,Arg34, Aib35, Lys37]GLP-1-(7-37)] (H-H[Aib]EGTFTSDVSSYLEEQAAREFIAWLVR[Aib]RK([AEEA-AEEA-γGlu-C18 diacid])-OH)
– | 6.10 to 6.40 | CC[C@H](C)[C@H](NC(=O)[C@H](Cc1ccccc1)NC(=O)[C@H](CCC(=O)O)NC(=O)[C@H](CCCNC(=N)N)NC(=O)[C@@H](NC(=O)[C@H](C)NC(=O)[C@H](CCC(N)=O)NC(=O)[C@H](CCC(=O)O)NC(=O)[C@H](CCC(=O)O)NC(=O)[C@H](CC(C)C)NC(=O)[C@H](Cc1ccc(O)cc1)NC(=O)[C@H](CO)NC(=O)[C@H](CO)NC(=O)[C@@H](NC(=O)[C@H](CC(=O)O)NC(=O)[C@H](CO)NC(=O)[C@@H](NC(=O)[C@H](Cc1ccccc1)NC(=O)[C@@H](NC(=O)CNC(=O)[C@H](CCC(=O)O)NC(=O)C(C)(C)NC(=O)[C@@H](N)Cc1c[nH]cn1)[C@@H](C)O)[C@@H](C)O)C(C)C)C(C)C)C(=O)N[C@@H](C)C(=O)N[C@@H](CCCCNC(=O)COCCOCCNC(=O)COCCOCCNC(=O)CC[C@H](NC(=O)CCCCCCCCCCCCCCCCC(=O)O)C(=O)O)C(=O)N[C@@H](CC(C)C)C(=O)N[C@H](C(=O)N[C@@H](CCCCN)C(=O)N[C@@H](CCCCN)C(=O)N[C@@H](CCCCN)C(N)=O)C(C)C [Example 36, N-epsilon31-[2-(2-{2-[2-(2-{2-[(S)-4-Carboxy-4-(17-carboxyheptadecanoylamino)butyrylamino]ethoxy}ethoxy)acetylamino]ethoxy}ethoxy)acetyl][Aib8,Glu22,Val25,Arg26,Lys31,Lys35,Lys36]GLP-1-(7-36) amide] (H-H[Aib]EGTFTSDVSSYLEEQAVREFIAK([AEEA-AEEA-γGlu-C18 diacid])LVKKK-NH2)
– | 6.70 to 6.82 | CC[C@H](C)[C@H](NC(=O)[C@H](Cc1ccccc1)NC(=O)[C@H](CCC(=O)O)NC(=O)[C@H](CCCNC(=N)N)NC(=O)[C@@H](NC(=O)[C@H](C)NC(=O)[C@H](CCC(N)=O)NC(=O)[C@H](CCC(=O)O)NC(=O)[C@H](CCC(=O)O)NC(=O)[C@H](CC(C)C)NC(=O)[C@H](Cc1ccc(O)cc1)NC(=O)[C@H](CO)NC(=O)[C@H](CO)NC(=O)[C@@H](NC(=O)[C@H](CC(=O)O)NC(=O)[C@H](CO)NC(=O)[C@@H](NC(=O)[C@H](Cc1ccccc1)NC(=O)[C@@H](NC(=O)CNC(=O)[C@H](CCC(=O)O)NC(=O)C(C)(C)NC(=O)[C@@H](N)Cc1c[nH]cn1)[C@@H](C)O)[C@@H](C)O)C(C)C)C(C)C)C(=O)N[C@@H](C)C(=O)N[C@@H](CCCCNC(=O)COCCOCCNC(=O)COCCOCCNC(=O)CC[C@H](NC(=O)CCCCCCCCCCCCCCCCC(=O)O)C(=O)O)C(=O)N[C@@H](CC(C)C)C(=O)N[C@H](C(=O)N[C@@H](CNC(=O)CN(CC(=O)O)CC(=O)O)C(N)=O)C(C)C [Example 37, N-epsilon31-{2-(2-{2-[2-(2-{2-[4-Carboxy-4-(17-carboxy-heptadecanoylamino)butyrylamino]ethoxy}ethoxy)acetylamino]ethoxy}ethoxy)acetyl}-N-beta34-(2-(bis-carboxymethylamino)acetyl)[Aib8,Glu22,Val25,Arg26,Lys31, Dap34] GLP-1(7-34) amide] (H-H[Aib]EGTFTSDVSSYLEEQAVREFIAK([AEEA-AEEA-γGlu-C18 diacid])LV[Dap](NTA)-NH2)
